The source of these data is ChEMBL document CHEMBL4190237, “Recent developments in biological activities of indanones” (Eur J Med Chem, 2017).

For one assay, the system named is Jurkat. Briefly: Cytotoxicity against human Jurkat cells assessed as cell growth inhibition by MTT assay. The class given is functional, cell-based. Background: Tetrazolium assays rely on reduction of a dye to a coloured formazan, in cell work by metabolically active cells.
The target in a further assay is Acetylcholinesterase (Electrophorus electricus, UniProt O42275). Briefly: Inhibition of electric eel AChE using acetylthiocholine iodide as substrate after 1 min by Ellman's method. A general note: In Ellman's method for cholinesterases, released thiocholine reacts with DTNB.
In another assay the test system is Klebsiella pneumoniae. The experiment in a line: Antibacterial activity against Klebsiella pneumoniae assessed as growth inhibition. The class given is functional.
For assay [1], the system named is Bovine viral diarrhea virus 1. The experiment in a line: Antiviral activity against BVDV infected in MDBK cells assessed as protection against virus-induced cytopathic effect after 3 days by MTS/PMS assay. The assay is classed as functional, organism-based. The note with it: Bovine viral diarrhea virus isolates and strains, 72 h. On the technique in general: Cytopathic effects are the visible damage that an infection or toxin causes in cultured cells.

In the next assay the test system is Candida albicans. The experiment in a line: Antifungal activity against Candida albicans MTCC 227 assessed as zone of inhibition at 50 mg/ml after 24 hrs by agar disc-diffusion method. The class given is functional. The following applies: MTCC 227, 24 h, read-out: IZ.
A further assay deals with HeLa. Briefly: Cytotoxicity against human HeLa cells. The class given is functional, cell-based.
The next assay has as its system K562. The experiment in a line: Cytotoxicity against human K562 cells. The assay is classed as functional, cell-based.

Chain of Acetylcholinesterase (O42275 whole entry): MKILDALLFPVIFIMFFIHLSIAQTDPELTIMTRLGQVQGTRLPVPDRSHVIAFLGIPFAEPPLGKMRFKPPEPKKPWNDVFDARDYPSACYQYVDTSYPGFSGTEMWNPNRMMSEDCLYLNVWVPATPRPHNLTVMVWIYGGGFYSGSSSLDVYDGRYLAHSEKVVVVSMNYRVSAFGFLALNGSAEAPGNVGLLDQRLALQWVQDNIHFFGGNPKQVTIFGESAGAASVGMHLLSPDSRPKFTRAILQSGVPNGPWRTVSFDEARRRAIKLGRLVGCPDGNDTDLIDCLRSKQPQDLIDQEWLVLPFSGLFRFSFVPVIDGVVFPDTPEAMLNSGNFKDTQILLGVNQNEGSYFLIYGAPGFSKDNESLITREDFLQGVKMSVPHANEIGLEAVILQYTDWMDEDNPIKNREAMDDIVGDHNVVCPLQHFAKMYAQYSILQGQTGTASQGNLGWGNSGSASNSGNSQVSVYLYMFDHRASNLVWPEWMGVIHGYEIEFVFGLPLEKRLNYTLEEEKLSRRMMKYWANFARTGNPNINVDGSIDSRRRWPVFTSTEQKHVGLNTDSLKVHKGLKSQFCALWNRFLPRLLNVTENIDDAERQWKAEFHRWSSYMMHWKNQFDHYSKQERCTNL

What is called IC50 is the concentration needed to halve the response being measured. Consider `COc1cc2c(c(N)c1OC)C/C(=C\c1cc(C)c(O)c(C)c1)C2=O`, for which, in the assay on Jurkat, the concentration for half-maximal inhibition (IC50) is 0.001 µM.

Molecule `NNc1ccc(C(=O)NCCCCCOc2ccc3c(c2)CC(CN2CCC(Cc4ccccc4)CC2)C3=O)cn1` (configuration not stated) gave an IC50 against Acetylcholinesterase of 1.09 µM.

In the case of `COc1cc2c(cc1OC)C(=O)/C(=C/c1cccc(/C=C/c3ccc4ccc(Cl)cc4n3)c1)C2`, the “growth inhibition (GI)” value in the assay on Klebsiella pneumoniae is reported as 11.23%.

By EC50 is commonly meant the concentration giving half of the maximal effect. Regarding `COc1cc2c(cc1OC)/C(=N/NC(N)=S)CC2`, in assay [1], the EC50 amounted to 5.35 µM.

On to `COc1cccc(-c2c(C#N)c(N)n(/N=C3\CCc4cc(OC)c(OC)cc43)c(=O)c2C#N)c1`, for which the zone of inhibition at 50000 µg/mL in the assay on Candida albicans is 23 mm.

On to `COc1cc(OC)c2c(c1)C(=O)CC2c1ccc(Br)cc1` (configuration not stated), for which the IC50 in the assay on HeLa stood at 60 µM; with K562, 10 µM.
